Source: article PMC10053770, “Assessment of the Pharmacokinetics, Disposition, and Duration of Action of the Tumour-Targeting Peptide CEND-1” (International Journal of Molecular Sciences, 2023)

Key:
[1] = Single-dose intravenous pharmacokinetics in mice; assay type: in vivo, mouse; settings: for clearance: read-out: Cl_obs (converted); for Vd: read-out: V
Procedure: (§1) The in vivo pharmacokinetic profile of CEND-1 after a single dose was evaluated in four non-GLP animal studies including Sprague-Dawley rats, Beagle dogs, cynomolgus monkeys and BALB/c mice following the intravenous injection of CEND-1 at various doses (1, 5 and 50 mg/kg for rats, dogs and monkeys; 1.5, 4.5 and 13.5 mg/kg for mice) (Table 1). Blood samples were collected for pharmacokinetic evaluations pre-dose and at 1, 5, 10, 15 and 30 min, and 1, 2 and 6 h post-dose in rats, dogs and monkeys, and 3, 10, 30 and 90 min, and 4 and 8 h post-dose in mice.
(§2) Plasma CEND-1 was quantified by validated liquid chromatography coupled with a tandem mass spectrometry (LC/MS/MS) assay. Tolbutamide or leuprorelin acetate were used as internal standards. AB Sciex Triple Quad API 5500 (Sciex, Framingham, MA, USA), operated in the positive electrospray ionization (ESI) mode, was used to monitor the precursor to production ion transitions of m/z 495.4→69.9.
(§3) No formal sample size calculation was performed. Samples of 2–12 animals and 31 pancreatic cancer patients were considered acceptable to perform initial pharmacokinetic evaluations. The concentrations of CEND-1 were used to calculate PK parameters by employing a non-compartmental analysis (Phoenix^TM WinNonlin, version 6.1). The linear log trapezoidal algorithm, with a weighting of 1/Y*Y was used for parameter calculations. Mean PK parameters were calculated from individual animals in each treatment group. Concentrations below the LLOQ (if any) were excluded for the calculation of PK parameters. The mean values of PK parameters were calculated using Microsoft Excel version 2010.

[2] = Single-dose intravenous pharmacokinetics in rats; assay type: in vivo, rat; settings: for Vd: read-out: V; for clearance: read-out: Cl_obs (converted)
Procedure: as §1, with “([…];” for “(1, 5 and 50 mg/kg for rats, dogs and monkeys;”
as §2, §3

[3] = male, BALB/c mouse, M, n=3, 1.5 mg/kg single IV, plasma LC/MS/MS, non-compartmental, one time point per animal
[4] = male, BALB/c mouse, M, n=3, 4.5 mg/kg single IV, plasma LC/MS/MS, non-compartmental, one time point per animal
[5] = male, BALB/c mouse, M, n=3, 13.5 mg/kg single IV, plasma LC/MS/MS, non-compartmental, one time point per animal
[6] = female, Sprague-Dawley rat, F, n=6, 1 mg/kg single IV, plasma LC/MS/MS, non-compartmental, one time point per animal
[7] = female, Sprague-Dawley rat, F, n=6, 5 mg/kg single IV, plasma LC/MS/MS, non-compartmental, one time point per animal
[8] = female, Sprague-Dawley rat, F, n=6, 75 mg/kg single IV, plasma LC/MS/MS, non-compartmental, one time point per animal
[9] = female, Sprague-Dawley rat, F, n=6, single IV, plasma LC/MS/MS, non-compartmental, one time point per animal
[10] = male, Sprague-Dawley rat, M, n=6, 1 mg/kg single IV, plasma LC/MS/MS, non-compartmental, one time point per animal
[11] = male, Sprague-Dawley rat, M, n=6, 5 mg/kg single IV, plasma LC/MS/MS, non-compartmental, one time point per animal
[12] = male, Sprague-Dawley rat, M, n=6, 75 mg/kg single IV, plasma LC/MS/MS, non-compartmental, one time point per animal
[13] = male, Sprague-Dawley rat, M, n=6, single IV, plasma LC/MS/MS, non-compartmental, one time point per animal

Which results are given for `CC(=O)N[C@H]1CSSC[C@@H](C(N)=O)NC(=O)[C@H](CC(=O)O)NC(=O)[C@@H]2CCCN2C(=O)CNC(=O)[C@H](CCCCN)NC(=O)[C@H](CC(=O)O)NC(=O)CNC(=O)[C@H](CCCNC(=N)N)NC1=O` [CEND-1]?
half-life ([1]; BALB/c, mouse, plasma, iv, mice, single intravenous dose, read-out: average plasma half-life): ~25 min; C0 ([1]; BALB/c, plasma, iv, mouse, dose level of 4–5 mg/kg, read-out: Cmax (C0)): ~40000 ng/mL; half-life ([1]; male, BALB/c, mouse, plasma, iv, 1.5 mg/kg, BALB/c mouse, M, n=3, 1.5 mg/kg single IV, plasma LC/MS/MS, non-compartmental, one time point per animal, read-out: t1/2 (converted)): 18.4 min; half-life ([1]; male, BALB/c, mouse, plasma, iv, 4.5 mg/kg, BALB/c mouse, M, n=3, 4.5 mg/kg single IV, plasma LC/MS/MS, non-compartmental, one time point per animal, read-out: t1/2 (converted)): 20.6 min; half-life ([1]; male, BALB/c, mouse, plasma, iv, 13.5 mg/kg, BALB/c mouse, M, n=3, 13.5 mg/kg single IV, plasma LC/MS/MS, non-compartmental, one time point per animal, read-out: t1/2 (converted)): 32.8 min; AUC(0-inf) [1, 3]: 1480 ng·h/mL; C0 ([1]; male, BALB/c mouse, M, n=3, 1.5 mg/kg single IV, plasma LC/MS/MS, non-compartmental, one time point per animal, read-out: C0): 10300 ng/mL; clearance [1, 3]: 16.9 mL/min/kg; Vd [1, 3]: 0.449 L/kg; AUC(0-inf) [1, 4]: 3700 ng·h/mL; C0 ([1]; male, BALB/c mouse, M, n=3, 4.5 mg/kg single IV, plasma LC/MS/MS, non-compartmental, one time point per animal, read-out: C0): 40300 ng/mL; clearance [1, 4]: 20.1 mL/min/kg; Vd [1, 4]: 0.599 L/kg; AUC(0-inf) [1, 5]: 10600 ng·h/mL; C0 ([1]; male, BALB/c mouse, M, n=3, 13.5 mg/kg single IV, plasma LC/MS/MS, non-compartmental, one time point per animal, read-out: C0): 68400 ng/mL; clearance [1, 5]: 21.3 mL/min/kg; Vd [1, 5]: 1.01 L/kg; Cl_obs ([2]; Sprague-Dawley rat, F, n=6, 1 mg/kg single IV, plasma LC/MS/MS, non-compartmental, one time point per animal): 9.37 mL/min/kg; half-life ([2]; Sprague-Dawley, rat, plasma, rats, single intravenous dose, read-out: average half-life): ~30 min; AUC(0-inf) [2, 6]: 1750 ng·h/mL; C0 [2, 6]: 3980 ng/mL; Vd [2, 6]: 0.201 L/kg; half-life ([2]; female, Sprague-Dawley rat, F, n=6, 1 mg/kg single IV, plasma LC/MS/MS, non-compartmental, one time point per animal, read-out: t1/2 (converted)): 14.9 min; AUC(0-inf) [2, 7]: 9750 ng·h/mL; C0 [2, 7]: 28400 ng/mL; clearance [2, 7]: 8.55 mL/min/kg; Vd [2, 7]: 0.323 L/kg; half-life ([2]; female, Sprague-Dawley rat, F, n=6, 5 mg/kg single IV, plasma LC/MS/MS, non-compartmental, one time point per animal, read-out: t1/2 (converted)): 26.2 min; AUC(0-inf) [2, 8]: 166000 ng·h/mL; Vd [2, 8]: 0.254 L/kg; half-life ([2]; female, Sprague-Dawley rat, F, n=6, 75 mg/kg single IV, plasma LC/MS/MS, non-compartmental, one time point per animal, read-out: t1/2 (converted)): 23.5 min; C0 [2, 9]: 436000 ng/mL; clearance [2, 9]: 7.52 mL/min/kg; AUC(0-inf) [2, 10]: 1770 ng·h/mL; C0 [2, 10]: 4230 ng/mL; clearance [2, 10]: 9.3 mL/min/kg; Vd [2, 10]: 0.64 L/kg; half-life ([2]; male, Sprague-Dawley rat, M, n=6, 1 mg/kg single IV, plasma LC/MS/MS, non-compartmental, one time point per animal, read-out: t1/2 (converted)): 48.3 min; AUC(0-inf) [2, 11]: 9060 ng·h/mL; C0 [2, 11]: 24300 ng/mL; clearance [2, 11]: 9.2 mL/min/kg; Vd [2, 11]: 0.366 L/kg; half-life ([2]; male, Sprague-Dawley rat, M, n=6, 5 mg/kg single IV, plasma LC/MS/MS, non-compartmental, one time point per animal, read-out: t1/2 (converted)): 27.6 min; AUC(0-inf) [2, 12]: 215000 ng·h/mL; Vd [2, 12]: 0.171 L/kg; half-life ([2]; male, Sprague-Dawley rat, M, n=6, 75 mg/kg single IV, plasma LC/MS/MS, non-compartmental, one time point per animal, read-out: t1/2 (converted)): 20.5 min; C0 [2, 13]: 469000 ng/mL; clearance [2, 13]: 5.8 mL/min/kg
